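Where inhibition never reached the appropriate level, the endpoint shown equals the highest concentration tested. Otherwise, values were interpolated linearly from a five-concentration, 48-hour dose response in 96-well plates. GI50 = concentration required for 50% inhibition of growth.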 Activity calls are given as the source filed them. No stated cut-off is given here; in the data, active = GI50 up to about 1.1 µM and inactive = higher.
Legend:
Test in all cases: inhibition of tumour cell growth, NCI panel, 48 h
A549 = tested on: A549
EKVX = tested on: EKVX
K562 = tested on: K562
KM12 = tested on: KM12
LOX IMVI = tested on: LOX IMVI
M14 = tested on: M14
MCF7 = tested on: MCF7
Malme-3M = tested on: Malme-3M
NCI-H226 = tested on: NCI-H226
NCI/ADR-RES = tested on: NCI/ADR-RES
OVCAR-5 = tested on: OVCAR-5
PC-3 = tested on: PC-3
SK-MEL-2 = tested on: SK-MEL-2
SK-MEL-5 = tested on: SK-MEL-5
SK-OV-3 = tested on: SK-OV-3
SW-620 = tested on: SW-620
TK-10 = tested on: TK-10
SK-MEL-28 = tested on: SK-MEL-28

Measured: GI50

O=C1CC(c2ccccc2)n2c(nc3ccccc32)N1 (stereo not drawn)
inactive: A549 > 100 µM | EKVX 73.5 µM | K562 23.7 µM | KM12 > 100 µM | LOX IMVI 39.4 µM | M14 > 100 µM | MCF7 67.1 µM | Malme-3M 38.1 µM | NCI-H226 > 100 µM | NCI/ADR-RES > 100 µM | OVCAR-5 > 100 µM | PC-3 > 100 µM | SK-MEL-2 18.9 µM | SK-MEL-5 20.5 µM | SK-OV-3 > 100 µM | SW-620 51.9 µM | TK-10 > 100 µM

CC(C)NC(=O)OCc1c(COC(=O)NC(C)C)c(-c2cc[n+](COC(=O)CC(C)(C)C)cc2)n2c1CCC2
inactive: A549 > 100 µM | EKVX > 100 µM | K562 > 100 µM | M14 > 100 µM | MCF7 > 100 µM | NCI-H226 > 100 µM | NCI/ADR-RES > 100 µM | PC-3 > 100 µM | SK-MEL-5 > 100 µM | SK-OV-3 > 100 µM | SW-620 > 100 µM

COc1ccc2nc(-c3ccc(OC(=O)N(C)C)cc3)cn2c1
inactive: A549 > 100 µM | EKVX > 100 µM | K562 39 µM | KM12 86.1 µM | LOX IMVI 82.8 µM | M14 75.7 µM | MCF7 > 100 µM | Malme-3M > 100 µM | NCI-H226 > 100 µM | NCI/ADR-RES > 100 µM | OVCAR-5 > 100 µM | PC-3 > 100 µM | SK-MEL-28 > 100 µM | SK-MEL-2 > 100 µM | SK-MEL-5 > 100 µM | SK-OV-3 > 100 µM | SW-620 > 100 µM | TK-10 > 100 µM

Cc1cccc(C(C)(C)C)c1NC(=O)CC1C(=O)Nc2ccccc2[S+]1[O-] (stereo not drawn)
inactive: A549 37 µM | K562 34.1 µM | KM12 73.6 µM | LOX IMVI 55.7 µM | M14 43.6 µM | Malme-3M 54 µM | NCI-H226 69.3 µM | OVCAR-5 > 100 µM | SK-MEL-28 41.5 µM | SK-MEL-2 49.3 µM | SW-620 36.7 µM | TK-10 46.5 µM

O=[N+]([O-])C=C1c2ccccc2-c2ccccc21
inactive: A549 19.9 µM | EKVX 20.4 µM | K562 2.52 µM | KM12 17.3 µM | LOX IMVI 16.6 µM | M14 12.7 µM | NCI-H226 > 10 µM | OVCAR-5 17.4 µM | SK-MEL-28 17.2 µM | SK-MEL-2 21.6 µM | SW-620 16.4 µM | TK-10 18.3 µM

O=[N+]([O-])c1nccn1COCCO
inactive: A549 > 100 µM | KM12 > 100 µM | LOX IMVI > 100 µM | M14 > 100 µM | Malme-3M > 100 µM | NCI-H226 > 100 µM | OVCAR-5 > 100 µM | SK-MEL-28 > 100 µM | SK-MEL-2 > 100 µM | SK-MEL-5 > 100 µM | SK-OV-3 > 100 µM | SW-620 > 100 µM | TK-10 > 100 µM
